Data on one molecule can be found in patent US20120053211A1, “TREATMENT OF PANCREATIC CANCER” (ARDEA BIOSCIENCES, INC., priority 2009, published 2012).

The subject of assay [1] is human pancreatic cancer cell line BxPC3. Briefly: In vitro activity in human pancreatic cancer cell line BxPC3. Format: cell-based. To be noted: read-out: EC50 (nM) (±standard deviation). Here is the method:
The in vitro activity of compound A was determined in the human pancreatic cancer cell line BxPC3 (normal […] status). EC50 values were determined (in 1% FBS and with 45 mg/mL has), as follows

Assay [2] concerns tumor. Briefly: Tumor volume following administration of compound A (FIG. 3, FIG. 4). Format: in vivo.

Where two headings read alike, the source gives them in different places.

For orientation: EC50 means the midpoint of the concentration-response curve. Regarding `COc1cc(F)c(F)c(Nc2ccc(I)cc2F)c1NS(=O)(=O)C1(C[C@H](O)CO)CC1` [Compound A, (S)-N-(3,4-difluoro-2-(2-fluoro-4-iodophenylamino)-6-methoxyphenyl)-1-(2,3-dihydroxypropyl)cyclopropane-1-sulfonamide], the EC50 in assay [1] (BXPC-3, BxPC3, 1% FBS) came out at 15.8 ± 2.4 nM; in assay [1] (BXPC-3, BxPC3, +45 mg/mL hSA), 207 ± 29 nM. Moreover, the “tumor volume as a function of time” value in assay [2] (FIG. 3) and in assay [2] (FIG. 4) was “decrease in tumor volume” each time.
